Source: US10597388B2, “Pyridazinone herbicides” (FMC CORPORATION, priority 2014, dated 2020)

Experiments:
Assay type in all cases: in vivo
[1] = tested on: barnyardgrass (Echinochloa crus-galli); assay: Test C greenhouse herbicide test, pre- and postemergence
Text: (§1) Seeds of plant species selected from blackgrass (Alopecurus myosuroides), ryegrass, Italian (Italian ryegrass, Lolium multiflorum), wheat (winter wheat, Triticum aestivum), galium (catchweed bedstraw, Galium aparine), corn (Zea mays), large crabgrass, large (large crabgrass, Digitaria sanguinalis), foxtail, giant (giant foxtail, Setaria faberii), johnsongrass (Sorghum halepense), lambsquarters (Chenopodium album), morningglory (Ipomoea coccinea), nutsedge, yellow (yellow nutsedge, Cyperus esculentus), pigweed (Amaranthus retroflexus), ragweed (common ragweed, Ambrosia elatior), soybean (Glycine max), barnyardgrass (Echinochloa crus-galli), oilseed rape (Brassica napus), waterhemp (common waterhemp, Amaranthus rudis), and velvetleaf (Abutilon theophrasti) were planted into a blend of loam soil and sand and treated preemergence with test chemicals formulated in a non-phytotoxic solvent mixture which included a surfactant.
(§2) At the same time, plants selected from these crop and weed species and also chickweed (common chickweed, Stellaria media), kochia (Kochia scoparia), and oat, wild (wild oat, Avena fatua), were planted in pots containing Redi-Earth® planting medium (Scotts Company, 14111 Scottslawn Road, Marysville, Ohio 43041) comprising spaghnum peat moss, vermiculite, wetting agent and starter nutrients and treated with postemergence applications of test chemicals formulated in the same manner. Plants ranged in height from 2 to 18 cm (1- to 4-leaf stage) for postemergence treatments. Treated plants and controls were maintained in a greenhouse for 13 to 15 d, after which time all species were compared to controls and visually evaluated. Plant response ratings, summarized in Table C, are based on a scale of 0 to 100 where 0 is no effect and 100 is complete control. A dash (-) response means no test result.

[2] = tested on: waterhemp (common waterhemp, Amaranthus rudis); assay: as above
Text: as §1, §2

corn (Zea mays) = assay: as above
Text: as §1, §2

[3] = tested on: blackgrass (Alopecurus myosuroides); assay: as above
Text: as §1, §2

[4] = tested on: ryegrass, Italian (Italian ryegrass, Lolium multiflorum); assay: as above
Text: as §1, §2

[5] = tested on: lambsquarters (Chenopodium album); assay: as above
Text: as §1, §2

[6] = tested on: johnsongrass (Sorghum halepense); assay: as above
Text: as §1, §2

soybean (Glycine max) = assay: as above
Text: as §1, §2

[7] = tested on: foxtail, giant (giant foxtail, Setaria faberii); assay: as above
Text: as §1, §2

[8] = tested on: ragweed (common ragweed, Ambrosia elatior); assay: as above
Text: as §1, §2

[9] = tested on: pigweed (Amaranthus retroflexus); assay: as above
Text: as §1, §2

[10] = tested on: crabgrass, large (large crabgrass, Digitaria sanguinalis); assay: as above
Text: as §1, §2

[11] = tested on: morningglory (Ipomoea coccinea); assay: as above
Text: as §1, §2

[12] = tested on: wheat (winter wheat, Triticum aestivum); assay: as above
Text: as §1, §2

kochia (Kochia scoparia) = assay: Test C greenhouse herbicide test, postemergence
How it was run: (§3)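 Test chemicals were applied postemergence to greenhouse plants at the 1- to 4-leaf stage (2–18 cm tall) growing in peat/vermiculite medium. After 13–15 d, injury was rated visually against untreated controls on a 0–100 scale (0 = no effect, 100 = complete control).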

[13] = tested on: oat, wild (wild oat, Avena fatua); assay: Test C greenhouse herbicide test, postemergence
How it was run: as §3

[14] = Postemergence, 31 g ai/ha, 0 to 100 scale (0 no effect, 100 complete control)
[15] = Postemergence, 125 g ai/ha, scale 0 to 100, 0 is no effect, 100 is complete control
[16] = Postemergence, 250 g ai/ha, scale 0 to 100, 0 no effect, 100 complete control, 13 to 15 d
[17] = postemergence, 62 g ai/ha, scale 0 to 100, 0 no effect, 100 complete control

CC(=O)Oc1c(C)nn(C)c(=O)c1-c1c(C)oc2ccc(C)cc12 [Compound 14, 5-(acetyloxy)-4-(2,5-dimethyl-3-benzofuranyl)-2,6-dimethyl-3(2H)-pyridazinone]
Barnyardgrass plant response rating [1, 14]: 5 | Plant response rating, Barnyardgrass [1, 15]: 55 | Plant response rating, Barnyardgrass [1, 16]: 60 | Barnyardgrass plant response rating [1, 17]: 5 | Waterhemp plant response rating [2, 14]: 5 | Plant response rating, Waterhemp [2, 15]: 50 | Plant response rating, Waterhemp [2, 16]: 40 | Waterhemp plant response rating [2, 17]: 10 | Corn plant response rating (corn (Zea mays); [14]): 0 | Plant response rating, Corn (corn (Zea mays); [15]): 0 | Plant response rating, Corn (corn (Zea mays); [16]): 5 | Corn plant response rating (corn (Zea mays); [17]): 0 | Blackgrass plant response rating [3, 14]: 0 | Plant response rating, Blackgrass [3, 15]: 5 | Plant response rating, Blackgrass [3, 16]: 20 | Blackgrass plant response rating [3, 17]: 0 | Ryegrass, Italian plant response rating [4, 14]: 40 | Plant response rating, Ryegrass, Italian [4, 15]: 65 | Plant response rating, Ryegrass, Italian [4, 16]: 85 | Ryegrass, Italian plant response rating [4, 17]: 60 | Lambsquarters plant response rating [5, 14]: 80 | Plant response rating, Lambsquarters [5, 15]: 80 | Plant response rating, Lambsquarters [5, 16]: 90 | Lambsquarters plant response rating [5, 17]: 80 | Johnsongrass plant response rating [6, 14]: 0 | Plant response rating, Johnsongrass [6, 15]: 0 | Plant response rating, Johnsongrass [6, 16]: 5 | Johnsongrass plant response rating [6, 17]: 0 | Soybean plant response rating (soybean (Glycine max); [14]): 0 | Plant response rating, Soybean (soybean (Glycine max); [15]): 5 | Plant response rating, Soybean (soybean (Glycine max); [16]): 5 | Soybean plant response rating (soybean (Glycine max); [17]): 0 | Foxtail, Giant plant response rating [7, 14]: 20 | Plant response rating, Foxtail, Giant [7, 15]: 50 | Plant response rating, Foxtail, Giant [7, 16]: 50 | Foxtail, Giant plant response rating [7, 17]: 45 | Ragweed plant response rating [8, 14]: 15 | Plant response rating, Ragweed [8, 15]: 50 | Plant response rating, Ragweed [8, 16]: 98 | Ragweed plant response rating [8, 17]: 90 | Pigweed plant response rating [9, 14]: 55 | Plant response rating, Pigweed [9, 15]: 70 | Plant response rating, Pigweed [9, 16]: 90 | Pigweed plant response rating [9, 17]: 70 | Crabgrass, Large plant response rating [10, 14]: 5 | Plant response rating, Crabgrass, Large [10, 15]: 30 | Plant response rating, Crabgrass, Large [10, 16]: 35 | Crabgrass, Large plant response rating [10, 17]: 5 | Morningglory plant response rating [11, 14]: 65 | Plant response rating, Morningglory [11, 15]: 100 | Plant response rating, Morningglory [11, 16]: 100 | Morningglory plant response rating [11, 17]: 85 | Wheat plant response rating [12, 14]: 0 | Plant response rating, Wheat [12, 15]: 5 | Plant response rating, Wheat [12, 16]: 5 | Wheat plant response rating [12, 17]: 0 | Kochia plant response rating (kochia (Kochia scoparia); [14]): 85 | Plant response rating, Kochia (kochia (Kochia scoparia); [15]): 90 | Plant response rating, Kochia (kochia (Kochia scoparia); [16]): 90 | Kochia plant response rating (kochia (Kochia scoparia); [17]): 85 | Oat, Wild plant response rating [13, 14]: 10 | Plant response rating, Oat, Wild [13, 15]: 40 | Plant response rating, Oat, Wild [13, 16]: 45 | Oat, Wild plant response rating [13, 17]: 30

CC(=O)Oc1c(C)nn(C)c(=O)c1-c1c(C)oc2c(C)cc(C)cc12 [Compound 16, 5-(acetyloxy)-2,6-dimethyl-4-(2,5,7-trimethyl-3-benzofuranyl)-3(2H)-pyridazinone]
Barnyardgrass plant response rating [1, 14]: 5 | Plant response rating, Barnyardgrass [1, 15]: 70 | Plant response rating, Barnyardgrass [1, 16]: 90 | Barnyardgrass plant response rating [1, 17]: 70 | Waterhemp plant response rating [2, 14]: 5 | Plant response rating, Waterhemp [2, 15]: 5 | Plant response rating, Waterhemp [2, 16]: 5 | Waterhemp plant response rating [2, 17]: 5 | Corn plant response rating (corn (Zea mays); [14]): 0 | Plant response rating, Corn (corn (Zea mays); [15]): 0 | Plant response rating, Corn (corn (Zea mays); [16]): 0 | Corn plant response rating (corn (Zea mays); [17]): 0 | Blackgrass plant response rating [3, 14]: 0 | Plant response rating, Blackgrass [3, 15]: 5 | Plant response rating, Blackgrass [3, 16]: 40 | Blackgrass plant response rating [3, 17]: 5 | Ryegrass, Italian plant response rating [4, 14]: 10 | Plant response rating, Ryegrass, Italian [4, 15]: 60 | Plant response rating, Ryegrass, Italian [4, 16]: 70 | Ryegrass, Italian plant response rating [4, 17]: 50 | Lambsquarters plant response rating [5, 14]: 10 | Plant response rating, Lambsquarters [5, 15]: 40 | Plant response rating, Lambsquarters [5, 16]: 20 | Lambsquarters plant response rating [5, 17]: 60 | Johnsongrass plant response rating [6, 14]: 0 | Plant response rating, Johnsongrass [6, 15]: 0 | Plant response rating, Johnsongrass [6, 16]: 5 | Johnsongrass plant response rating [6, 17]: 0 | Soybean plant response rating (soybean (Glycine max); [14]): 0 | Plant response rating, Soybean (soybean (Glycine max); [15]): 0 | Plant response rating, Soybean (soybean (Glycine max); [16]): 0 | Soybean plant response rating (soybean (Glycine max); [17]): 0 | Foxtail, Giant plant response rating [7, 14]: 55 | Plant response rating, Foxtail, Giant [7, 15]: 70 | Plant response rating, Foxtail, Giant [7, 16]: 80 | Foxtail, Giant plant response rating [7, 17]: 60 | Ragweed plant response rating [8, 14]: 0 | Plant response rating, Ragweed [8, 15]: 0 | Plant response rating, Ragweed [8, 16]: 30 | Ragweed plant response rating [8, 17]: 0 | Pigweed plant response rating [9, 14]: 40 | Plant response rating, Pigweed [9, 15]: 30 | Plant response rating, Pigweed [9, 16]: 50 | Pigweed plant response rating [9, 17]: 30 | Crabgrass, Large plant response rating [10, 14]: 5 | Plant response rating, Crabgrass, Large [10, 15]: 20 | Plant response rating, Crabgrass, Large [10, 16]: 30 | Crabgrass, Large plant response rating [10, 17]: 20 | Morningglory plant response rating [11, 14]: 45 | Plant response rating, Morningglory [11, 15]: 60 | Plant response rating, Morningglory [11, 16]: 40 | Morningglory plant response rating [11, 17]: 50 | Wheat plant response rating [12, 14]: 0 | Plant response rating, Wheat [12, 15]: 0 | Plant response rating, Wheat [12, 16]: 0 | Wheat plant response rating [12, 17]: 0 | Kochia plant response rating (kochia (Kochia scoparia); [14]): 0 | Plant response rating, Kochia (kochia (Kochia scoparia); [15]): 20 | Plant response rating, Kochia (kochia (Kochia scoparia); [16]): 25 | Kochia plant response rating (kochia (Kochia scoparia); [17]): 0 | Oat, Wild plant response rating [13, 14]: 5 | Plant response rating, Oat, Wild [13, 15]: 10 | Plant response rating, Oat, Wild [13, 16]: 40 | Oat, Wild plant response rating [13, 17]: 5
